Data published in patent US12194018B2, “Cannabinoid compositions” (SRE Wellness, Inc., priority 2016, dated 2025).

Assays:
[1] = Emulsifying agents tested for emulsification of coconut oil and water (Example 2); format: physicochemical; conditions: coconut oils solid and liquid (MCT)
From the text: Several experiments were run using several different emulsifiers and combinations of different coconut oils: solid and liquid (MCT). (Note: liquid MCT is coconut oil that has medium chain triglyceride).

[2] = in vivo; cited from earlier work
[3] = edible Cannabis products; depending on liver function; cited from earlier work

Compound: cyclodextrin
- Effectiveness as emulsifying agent (emulsification of the oil and water) [1]: good results

Compound: C=C(C)[C@@H]1CCC(C)=C[C@H]1c1c(O)cc(CCCCC)cc1O [CBD, cannabidiol]
- Risk of lethal overdose [2]: no risk of lethal overdose

Compound: CCCCCc1cc(O)c2c(c1)OC(C)(C)[C@@H]1CCC(C)=C[C@@H]21 [THC, Δ^9-tetrahydrocannabinol]
- Share of the THC able to be metabolized [3]: 2-6%
- Risk of lethal overdose [2]: no risk of lethal overdose
